Source: the COVID Moonshot data (paper PMC11187573), “Identification of SARS-CoV-2 Mpro inhibitors through deep reinforcement learning for de novo drug design and computational chemistry approaches” (RSC Medicinal Chemistry, 2024)

Key:
[1] = molecular target: SARS-CoV-2 Main Protease (SARS-CoV-2) (UniProt P0DTD1)
[2] = molecular target: SARS-CoV-2 Main Protease (SARS-CoV-2) (UniProt P0DTD1); remark: listed apart in the source

Row | Structure (SMILES) | inhibition ([1]; 20.0 µM) [%] | inhibition ([1]; 50.0 µM) [%] | inhibition ([2]; 20.0 µM) [%] | relative solubility at 20 uM | relative solubility at 100 uM | inhibition ([2]; 50.0 µM) [%] | IC50 [2] [µM]
1 | CS(=O)(=O)Nc1cccc(C(=O)Nc2cccc(N3CCCC3=O)c2)c1 | 0.866 | 5.19 | 0 | 1 | 0.99 |  | 
2 | C=CC(=O)N(c1ccc(C(C)(C)C)cc1)C(C(=O)NC(C)CC)c1cccnc1 (stereo unspecified) | 16.8 | 32.5 | 3.71 | 1 | 1 | 23.9 | 
3 | NS(=O)(=O)c1ccc(N2CCC([C@@H]3CCCO3)CC2)cc1 (stereo in doubt) |  | -16 | 35 | 0.99 | 1 | 52.2 | 
4 | Cc1ccc(NC(=O)Cc2cc3cccnc3[nH]2)s1 | 23.7 | 8.28 |  | 1 | 0.96 | 7.42 | 
5 | O=C(Cc1ccc(F)cc1)Nc1cccc2cc[nH]c12 | -2.43 | -33.9 |  | 1 | 0.88 | 0 | 
6 | O=C(c1ccccc1)N1CCN(C(=O)c2nn(-c3ccccc3C(F)(F)F)cc2O)CC1 | -48 | -1.44 |  | 0.99 | 0.95 | 0 | 
7 | COC(=O)C(Cc1ccccc1)C(C)NC(=O)C(C)n1ccnc1 (stereo unspecified) |  | 11.9 | 0 | 1 | 1 | 0 | 
8 | C=CC(=O)N(c1ccc(C(C)(C)C)cc1)C(C(=O)Nc1ccc2c(c1)OCCO2)c1cccnc1 (stereo unspecified) | 2.83 | 18.1 | 7.68 | 0.98 | 0.75 | 30.8 | 
9 | O=C(Nc1cccc(-c2cc[nH]n2)c1)C(O)c1cccnc1 (stereo unspecified) |  | 10.4 | 0 | 1 | 1 | 0 | 
10 | COC(=O)C(c1ccccc1Cl)N1CCc2sccc2C1 (stereo unspecified) | -3.49 | 4.1 |  | 0.97 | 0.79 | 0 | 
11 | Cc1cnn(-c2ccncc2NC(=O)Cn2cc(C)c3ccccc32)c1 | -8.61 | -0.417 |  | 0.59 | 0.1 | 0 | 
12 | C=CC(=O)N(c1ccc(S(F)(F)(F)(F)F)cc1)C(C(=O)Nc1c(C)cccc1CC)c1cccnc1 (stereo unspecified) | 3.13 | 7.07 | 4.69 | 0.85 | 0.73 |  | 
13 | O=C1CC[C@@H](C(=O)Nc2cccc(Cl)c2)CN1 (stereo in doubt) | -24 | -3.68 |  | 1 | 1 | -12 | 
14 | Cc1ccncc1NC(=O)CN1CCOCC1 | -2.39 | -7.76 |  | 1 | 1 | 5.7 | 
15 | COc1ccc2c(c1)C(C(=O)Nc1cnccc1-n1cccn1)CCC2 (stereo unspecified) | -15.2 | 7.3 |  | 0.99 | 0.95 | 0 | 
16 | Cc1coc(NC(=O)Nc2cccnc2)n1 | 2.91 | 8.86 | 2.76 | 1 | 1 | 8.52 | 
17 | Cc1ccncc1NC(=O)Nc1ccccc1 |  | 21.1 | 0 | 1 | 1 | -0.18 | 
18 | C=CC(=O)N(C1CCC2(CCCC2)C1)C(C(=O)NC(C)(C)C)c1cccnc1 (stereo unspecified) | 5.22 | 6.35 | 0 | 0.98 | 0.99 |  | 
19 | CC1CN(Cc2ccccc2NC(=O)NCc2cnsc2)CC(C)O1 (stereo unspecified) | 1.48 | 4.44 | 0 | 1 | 0.98 | 1.33 | 
20 | CCc1ccccc1Nc1nc(N)nc(CSc2nnc3ccccn23)n1 | 20.9 | 46.6 | -0.805 | 0.99 | 0.95 | 3.37 | 
21 | CN1CCN(C(=O)Cc2c[nH]c3ncccc23)CC1C(=O)NCCc1c[nH]c2ccc(F)cc12 (stereo unspecified) | -9.55 | -21.5 |  | 0.98 | 0.98 | -15 | 
22 | O=C(COc1ccccc1)NCCc1ccccc1 | -0.178 | -0.0738 | 0 | 1 | 1 | 0 | 
23 | O=C(NCc1cnccn1)c1sc2cccc(F)c2c1COc1ccccc1 | -1.73 | 6.32 | 0 | 0.95 | 0.44 | -0.855 | 
24 | O=C(C1CCN(c2ccncc2)CC1)N1CCS(=O)(=O)CC1 |  | -27.4 | 19.7 | 1 | 1 | 42.9 | 
25 | C=CC(=O)N(c1ccc(N2CCC2)cc1)C(C(=O)NC(C)(C)C)c1cccnc1 (stereo unspecified) | -18.5 | -17.3 | 0 | 0.97 | 0.93 |  | 
26 | Cc1nc(-c2cccc(CNC(=O)Nc3cccc(CN4CCCC4=O)c3)c2)n[nH]1 | 2.12 | 2.95 |  | 0.98 | 0.98 | 0 | 
27 | Cn1cnnc1NC(=O)Cc1cccc(Cl)c1 | 5.99 | -26 |  | 1.01 | 1 | -10.5 | 
28 | C=CC(=O)N(c1ccc(C(C)(C)C)cc1)C(C(=O)NCc1cccnc1)c1cccnc1 (stereo unspecified) | 41.2 | 59.3 | 18.2 | 1 | 0.96 | 61.3 | 

Row | Structure (SMILES) | inhibition ([1]; 20.0 µM) [%] | inhibition ([1]; 50.0 µM) [%] | inhibition ([2]; 20.0 µM) [%] | relative solubility at 20 uM | relative solubility at 100 uM | inhibition ([2]; 50.0 µM) [%] | IC50 [2] [µM]
29 | Cc1ccncc1NC(=O)CC(C)(C)NC(=O)c1cccc2[nH]ccc12 |  | -10.4 | 0 | 0.99 | 0.99 | 0 | 
30 | C=CC(=O)N(c1ccc(C2(C)CC2)cc1)C(C(=O)NC(C)(C)C)c1cccnc1 (stereo unspecified) |  | -13.5 | 0 | 1 | 1 | 10.1 | 
31 | C=CC(=O)N(c1ccc(N(C)C)c(C)c1)C(C(=O)Nc1ccc(OC)cc1C)c1cccnc1 (stereo unspecified) | 2.51 | 7.01 | 0 | 0.87 | 0.83 |  | 
32 | O=C(CCl)N1CCCC(c2nc(-c3cccnc3)nc3ccccc23)C1 (stereo unspecified) | 7.84 | 31.8 |  | 0.9 | 0.89 | 100 | 
33 | Cc1ccncc1NC(=O)CCc1nc2cc(Cl)ccc2o1 | 10.4 | 13.1 |  | 0.99 | 1 | 0 | 
34 | O=C(C1CCN(S(=O)(=O)c2ccccc2)CC1)N1CCOCC1 | 1.87 | 5.52 | 0 | 1 | 0.99 | 0 | 
35 | Cc1ccncc1NC(=O)Cc1ccccc1 | 8.19 | 19.5 | -0.63 | 1 | 1 | 16.1 | 
36 | COc1ccc(C(=O)Nc2cccc(/C=C3/C(=O)NC(=O)c4ccccc43)c2)cc1 | -3.55 | -22.9 |  | 0.48 | 0.54 | 34.2 | 
37 | Cc1ccncc1NC(=O)c1cccc(NC(=O)Nc2cccnc2)c1 |  | -23.3 | 2.38 | 1 | 1 | 1.27 | 
38 | O=C(Nc1cnccc1Cl)c1cc(Cl)ccc1O | 66.8 | 75.2 | 15.5 | 1 | 0.98 | 65.9 | 
39 | O=C(c1cc(=O)[nH]c2ccc(F)cc12)N1CCN(S(=O)(=O)c2ccccc2Cl)CC1 | 19.5 | 35.1 |  | 0.98 | 0.93 | 39.8 | 
40 | Cn1nncc1CC(=O)NC(c1ccccc1)c1nc2ccccc2n1C (stereo unspecified) |  | 54.1 | 0 | 1 | 1 | 0 | 
41 | Cc1ccncc1NC(=O)Nc1cccc(Cl)c1 | 32.1 | 58.7 | 25.6 | 0.99 | 0.96 | 64.1 | 45.7
42 | COc1ccncc1NC(=O)C(C)(C)c1cc(F)cc(C#N)c1 | 20 | 30.8 |  | 0.99 | 1 | 40.6 | 
43 | CC1(C)Cc2cccc(OCCNC(=O)c3cc(=O)[nH]c4cc(F)ccc34)c2O1 | 36.7 | 69.9 |  | 0.97 | 0.97 | 13.8 | 
44 | O=C(CCl)N1CCN(Cc2cccc(CNC(=O)N3CCOCC3)c2)CC1 | 11.7 | 32.4 |  | 1 | 1 | 95.6 | 50.3
45 | O=C(Nc1cccnc1)Nc1cccc(Cl)c1 | 12.9 | 30.9 |  | 0.98 | 0.99 | 44.1 | 
46 | Cc1cnn(C)c1NC(=O)Cc1cccc(Cl)c1 | 3.11 | 5.06 |  | 0.99 | 0.99 | 23.1 | 
47 | N#Cc1cccc(NC(=O)Nc2c[nH]c3ncccc23)c1 |  | 47.3 | 0 | 1 | 0.91 | 19.9 | 
48 | NS(=O)(=O)c1ccc(N2CCSCC2)cc1 |  | -25.9 | 29.1 | 1 | 1 | 48.2 | 
49 | Cc1ccncc1NC(=O)Cc1cccc(C#N)c1 | 33.6 | 58.3 | 20.5 | 1 | 1.01 | 52.7 | 43.8
50 | C=CC(=O)N(c1ccc(C(C)(C)C)cc1)C(C(=O)NC(C)(C)C)c1cncc(OC)c1 (stereo unspecified) | -13.4 | -6.87 | 0.0741 | 1 | 0.99 | 8.47 | 
51 | Cc1ccccc1CN1CCN(C(=O)C(F)C(C)C)CC1 (stereo unspecified) | 2.74 | 6.7 | 0 | 1 | 1 | 10.3 | 
52 | C=CC(=O)N(c1cc(C(C)(C)C)on1)C(C(=O)Nc1cccc(CC)c1)c1cccnc1 (stereo unspecified) | 15.6 | 43.1 | 6.79 | 0.87 | 0.76 |  | 
53 | O=C1Nc2c(Br)cccc2C1=O | -4.89 | -4.45 |  | 0.99 | 0.81 | 67.4 | 43.1
54 | C=CC(=O)N(c1ccc(C(C)(C)C)cc1)C(C(=O)NC(C)(C)C)c1cncc2ccccc12 (stereo unspecified) | -17.7 | -17.5 | 0 | 0.85 | 0.56 | 0 | 
55 | Cc1cccc(CC2CCN(C(=O)CCl)CC2)c1 | 62.9 | 90.5 |  | 1 | 1 | 87.1 | 4.49
